The test system of the test is Microfilaria of Dirofilaria immitis. Description: Method A: screening of compounds against microfilaria of Dirofilaria immitis (microtitre plate, survival at 72 hours). It counts as cell-based. The conditions noted are these: read-out: mean EC50 values.

For orientation: EC50 means the midpoint of the concentration-response curve. As to `C[C@H]1OC(=O)[C@H](CC(C)(C)C)N(C)C(=O)[C@@H](Cc2ccc(SC(F)(F)F)cc2)OC(=O)[C@H](CC(C)(C)F)N(C)C(=O)[C@@H](C)OC(=O)[C@H](CC(C)(C)C)N(C)C(=O)[C@@H](Cc2ccc(SC(F)(F)F)cc2)OC(=O)[C@H](CC(C)(C)F)N(C)C1=O` [44-46/1-4, (3S,6R,9S,12R,15S,18R,21S,24R)-3,15-bis(2-fluoro-2-methylpropyl)-4,6,10,16,18,22-hexamethyl-9,21-dineopentyl-12,24-bis(4-(trifluoromethylthio)benzyl)-1,7,13,19-tetraoxa-4,10,16,22-tetraazacyclotetracosan-2,5,8,11,14,17,20,23-octaone], the EC50 is less than 1000 nM.

For the origin of these results see US11382949B2, “Anthelmintic depsipeptide compounds” (BOEHRINGER INGELHEIM ANIMAL HEALTH USA INC., priority 2016, dated 2022).
